Test results reported in US20060088545A1, “Use of inhibitors of the protease of the human immunodeficiency virus (hiv) to block cell migration and/or invasion, tissue infiltration and oedema for the therary of diseases associated therewith” (priority 2001, published 2006).
Entries after “also recorded” stand apart in the source; their conditions may differ.

Key:
[1] = system: bFGF-induced angiogenic KS-like lesions; assay: bFGF-induced angiogenic KS-like lesions in nude mice; type: in vivo; details: for No. of mice with macroscopic vascular lesions/No. of inoculated mice / mice with macroscopic vascular lesions (%): bFGF 1 μg in matrigel, indinavir 1.4 mg/day or saquinavir 1 mg/day, intragastric gavage, 7 days; for Tissue staining (area % ± SD) CD31 / Tissue staining (area % ± SD) FVIII-RA: bFGF 1 μg, lesional area stained
Experimental: The mice were then inoculated with bFGF (1 μg) or with its diluting buffer in the presence of matrigel (Kleiner et al., 1993; Ensoli et al., 1994a; Samaniego et al., 1998; Barillari et al., 1999a).
The mice were then sacrificed and the inoculation areas examined both macroscopically and microscopically for the presence of KS-like angioproliferative lesions (Kleiner et al., 1993; Ensoli et al., 1994a; Samaniego et al., 1998; Barillari et al., 1999a).
At the time of sacrifice, the inoculation sites were examined to check for the presence of macroscopic angioproliferative lesions and analyzed microscopically after haematoxilin & eosin (H&E) staining or frozen for histochemical analysis of endothelial the cell markers FVIII-RA and CD31. Here are listed the number (No.) of mice that developed lesions with respect to the number (No.) of mice inoculated, and the percentage (%) of mice that developed lesions. […] Angiogenesis was quantitated by determining the tissue area stained for FVIII-RA or CD31. Shown are the percentages [mean±standard deviations (SD)] of lesional area stained for FVIII-RA or CD31 that were quantitated as described below.
These doses correspond, respectively, to the whole dose, double or half the dose of HIV-PI used daily in patients infected with HIV (Deeks et al., 1997). […] The control animals were treated with the same volume of saline solution. On the third day the mice were inoculated subcutaneously at the level of the lower dorsal quadrant with 1 μg of recombinant bFGF (Roche, Mannheim, Germany) diluted in 0.2 ml of phosphate buffer (PBS)-0.1% bovine […] albumin (BSA) or with its re-suspending buffer, mixed with 0.2 ml of Matrigel (Collaborative Biomedical Products, Bedford, Mass.) prior to inoculation, as described previously (Ensoli et al., 1994a). Four days later the mice were sacrificed, the inoculation sites were examined to check for the presence of macroscopic KS-like angioproliferative lesions, and sections of tissue histologically examined after staining with H&E. For immunohistochemical analysis, frozen tissue sections were fixed with cold acetone and stained with rabbit anti-human FVIII-RA polyclonal antibodies (Ab) (Dako, Glostrup, Denmark; 1:2000 dilution) or anti-mouse CD31 rat monoclonal Ab (BD Biosciences; 1:1000 dilution). Digital images (200× magnification) were captured by a color CCD camera (Zeiss) and analyzed by acquiring 4-9 microscopic fields (about 0.15 mm^2 per field) corresponding to the whole histologic sections. Staining was quantitated by the KS300 (Zeiss) image analysis software and expressed as the percentage of positive area over the total tissue area.

[2] = system: lung carcinoma (A549) cells; assay: Invasion assay of A549 cells in response to bFGF; type: cell-based, human; details: 0.1, 1 or 10 μM
Experimental: The invasion assays were performed in the Boyden chamber. Polycarbonate filters ([…]; Nucleoprobe, Cabin John, Md.) were coated first with collagen IV and then with Matrigel (Collaborative Biomedical Products) as described previously (Barillari et al., 1999b). […] Human recombinant bFGF (50 ng/ml) was placed in the lower compartment as chemo-attractant. […] Louis, Mo.). Ten random filter fields were counted by light microscopy as described previously (Barillari et al., 1999b).

[3] = system: breast carcinoma cells (MDA-MB-468); assay: Cell growth assay of MDA-MB-468 cells; type: cell-based, human; details: 10 μM; 4 days
Experimental: Shown is the result of a representative cell growth assay performed on the breast carcinoma cells. Human breast carcinoma cells (MDA-MB468; ATCC) were plated in triplicate (8×10^4 cells/well) in 12-well plates. […] Ensoli et al., 1994b): For all the in vitro studies HIV-PI as endotoxin-free pure powder (a kind gift of Merck Sharp & Dohme and Roche) were resuspended in distilled water. Assays were repeated at least three times.

[4] = system: breast carcinoma (MDA-MB468) cells; assay: Invasion assay of MDA-MB468 cells in response to bFGF; type: cell-based, human; details: 0.1, 1 or 10 μM
Experimental: Shown is the result of a representative invasion assay performed on the breast carcinoma cells MDA-MB468. […] The invasion assays were performed in the Boyden chamber. Polycarbonate filters ([…]; Nucleoprobe, Cabin John, Md.) were coated first with collagen IV and then with Matrigel (Collaborative Biomedical Products) as described previously (Barillari et al., 1999b). […] Human recombinant bFGF (50 ng/ml) was placed in the lower compartment as chemoattractant. […] Louis, Mo.). Ten random filter fields were counted by light microscopy as described previously (Barillari et al., 1999b). Assays were repeated two times.

[5] = system: lung carcinoma (A549) cells; assay: Lesions induced by A549 cells in nude mice; type: in vivo; details: 5×10^6 cells/site; daily treatment
Experimental: (§1) The treatment with HIV-PI or saline solution continued until sacrifice. The size of the lesions present at the injection site was evaluated daily by caliper measurement. External lesion area was then calculated as the product of the two major lesion diameters. The mean size (cm^2) of the lesions present at the injection site is shown.
(§2) To determine whether HIV-PI could inhibit the growth of malignant solid and lymphoid tumours, nude mice were inoculated with hepato-carcinoma cells (SK-Hep-1), lung carcinoma cells (A549), breast adeno-carcinoma cells (MDA-MB-468), myelo-monocytic leukaemia cells (U937), and T lymhocytic leukaemia cells (Jurkat).

[6] = system: myelo-monocytic leukaemia (U937) cells; assay: Tumour lesions induced by U937 cells in nude mice; type: in vivo; details: 5×10^6 cells/site; daily treatment
Experimental: as §1, §2

IL-1α = IL-1α production by KS cells (ELISA); type: cell-based, human; details: 0.1, 1 and 10 μM, 5 days + 24 hours
Experimental: After 24 hours of incubation, the supernatants of the cultures were tested by ELISA (R & D Systems, Minneapolis, Minn., USA) to determine the quantity of IL-6 present in the medium. The quantity of IL-6 is expressed in pg/ml of supernatant. The same tests were carried out for bFGF, VEGF, IL-1α and IL-1β by means of commercial ELISA kits.
KS cells secrete cytokines with an inflammatory, oedemigenic, angiogenic and proliferative activity with autocrine and paracrine effects (Ensoli and Stürzl, 1998). These factors mediate all the processes required for KS-like lesions formation (angiogenesis, cellular proliferation and invasion, inflammatory Infiltration, oedema) and vascular permeability and oedema induced by KS cells in nude mice. […] The quantity of bFGF, VEGF, IL-1 and IL-6 was dosed with immuno-enzymatic trials in the supernatants of the KS cells after 24 hours of culture in the absence of serum and in the continuous presence of the two HIV-PI (ELISA). […] Furthermore IL-6 plays a key role in the multicentric Cstleman's diseases and in the growth of lymphomas (Tosato et al., 1993; Peterson and Frizzera, 1993; Asou et al., 1998; Ramsay et al., 1994), another type of tumour whose incidence is reduced in patients treated with HIV-PI (International Collaboration on HIV and Cancer 2000).

CC(C)(C)NC(=O)[C@@H]1CN(Cc2cccnc2)CCN1C[C@@H](O)C[C@@H](Cc1ccccc1)C(=O)N[C@H]1c2ccccc2C[C@H]1O [Indinavir, indinavir]
No. of mice with macroscopic vascular lesions/No. of inoculated mice [1]: 8/28
mice with macroscopic vascular lesions (%) [1]: 28%
Tissue staining (area % ± SD) CD31 [1]: 1.00 ± 0.6%
Tissue staining (area % ± SD) FVIII-RA [1]: 1.32 ± 1.2%
angiogenesis and infiltration of the cells, microscopic examination of the inoculation sites ([1]; in comparison with mice inoculated with bFGF and not treated): marked reduction
invasive capacity in response to bFGF [2]: inhibit
proliferation [3]: do not interfere
invasive capacity in response to bFGF [4]: inhibit
development of lesions (lesion size) [5]: inhibit
development of tumour lesions (lesion size) [6]: inhibit
production of IL-1α by KS cells (IL-1α): inhibited
production of IL-1α by KS cells (IL-1α; listed as indinavir): reduced

CC(C)(C)NC(=O)[C@@H]1C[C@@H]2CCCC[C@@H]2CN1C[C@@H](O)[C@H](Cc1ccccc1)NC(=O)[C@H](CC(N)=O)NC(=O)c1ccc2ccccc2n1 [Saquinavir, saquinavir]
No. of mice with macroscopic vascular lesions/No. of inoculated mice [1]: 7/28
mice with macroscopic vascular lesions (%) [1]: 25%
Tissue staining (area % ± SD) CD31 [1]: 0.83 ± 0.3%
Tissue staining (area % ± SD) FVIII-RA [1]: 1.13 ± 0.6%
invasive capacity in response to bFGF [2]: inhibit
proliferation [3]: do not interfere
invasive capacity in response to bFGF [4]: inhibit
development of lesions (lesion size) [5]: inhibit
development of tumour lesions (lesion size) [6]: inhibit
production of IL-1α by KS cells (IL-1α): reduced; also recorded: inhibited
